According to patent US8133709B2, “Target sequences for synthetic molecules” (Life Technologies Corporation, priority 2003, dated 2012):

How the values were obtained:
[1] = biological target: T1, AcpS+4Cys (SlyD tetracysteine sequence […] on AcpS) (Escherichia coli, UniProt P24224); assay: FlAsH-EDT2 labeling of in vitro synthesised protein, SDS-PAGE, UV light box; assay type: binding; conditions: 10 μM in LDS sample buffer, 70° C. 10 minutes; compared with CCPGCC; FIG. 14
T1 construct: made in house; host or cells: Cell-free: Expressway in vitro protein synthesis kit, S30 E. coli extract, from a pRSET vector
T1 sequence (P24224 with tags, fused parts or gaps): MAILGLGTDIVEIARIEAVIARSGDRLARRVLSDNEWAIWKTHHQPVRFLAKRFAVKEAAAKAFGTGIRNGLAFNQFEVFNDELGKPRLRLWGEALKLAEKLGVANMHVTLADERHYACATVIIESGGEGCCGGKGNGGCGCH
Excerpt: A target sequence that includes the SlyD (SEQ. ID NO: 4) tetracysteine sequence, CCGGKGNGGCGC (SEQ. ID NO: 5) was introduced onto the Carboxy-terminus of Acyl Carrier Protein S (AcpS). Since AcpS has only one endogenous cysteine amino acid and since AcpS is a robust stable protein, a substitution at the Carboxy-terminus could be made without altering the solubility of the properly folded protein. […] ID NO: 6. The mutated AcpS is referred to as AcpS+4Cys. The substitutions were generated using polymerase chain reaction with primers specific for the encoding the expression of the desired tetracysteine sequence. The nucleic acid sequence encoding the cysteine substituted AcpS was inserted into the pRSET vector (Invitrogen, Carlsbad, Calif., Catalog #V351-20) using restriction sites inherent to the vector's multiple cloning site. After amplification in DH5 bacteria, the vector was expressed using in vitro transcription and translation. See also, U.S. Provisional Patent Application No. 60/614,590, filed Oct. 1, 2004 and U.S. patent application Ser. No. 10/954,951, filed Oct. 1, 2004, incorporated by reference herein in their entireties, disclosing additional compositions and methods for in vitro transcription and translation.
In vitro protein synthesis was carried out using the Expressway™ in vitro protein synthesis kit (Invitrogen, Carlsbad, Calif., Catalog #K9600-02). […]

[2] = biological target: T2, ACP-CCPGCC (tetracysteine version of Acyl Carrier protein) (Escherichia coli, UniProt P0A6A8); assay: as above; assay type: binding; conditions: 10 μM in LDS sample buffer, 70° C. 10 minutes; control; FIG. 14
T2 construct: made in house; host or cells: Cell-free: Expressway in vitro protein synthesis kit (S30 E. coli extract)
T2 sequence (P0A6A8 with tags, fused parts or gaps): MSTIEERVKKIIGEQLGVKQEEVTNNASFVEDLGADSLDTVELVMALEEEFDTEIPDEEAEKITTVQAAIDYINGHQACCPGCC
Procedure: In vitro protein synthesis was carried out using the Expressway™ in vitro protein synthesis kit (Invitrogen, Carlsbad, Calif., Catalog #K9600-02). Following the manufacture's protocol 1 μg of AcpS vector DNA was added to a total volume of 50 μL of S30 E. coli extract and reaction buffer. As a control, a tetracysteine (CCPGCC) (SEQ. ID NO: 53) version of Acyl Carrier protein (ACP) (SEQ. ID NO: 7) was also expressed via the Expressway™ kit. The reaction was placed at 37° C. with 225 rpm shaking for two hours. After incubation 5 μL of RNase A was added to the reaction, after which an additional 15 minute incubation at 37° C. was performed. Protein from the in vitro protein synthesis reaction was prepared for SDS-PAGE analysis through an acetone precipitation procedure. 5 μl of reaction was added to 20 μL of 100% acetone. After mixing well the acetone solution was centrifuged for 5 minutes at room temperature in a microcentrifuge at 12,000 rpm. The supernatant was removed and the pellet was allowed to dry for 5 minutes. The pellet was resuspended in a 50 μL volume of LDS sample buffer (Invitrogen, Carlsbad, Calif., Catalog #NP0007) containing 10 μM FlAsH-EDT2. The samples were heated to 70° C. for 10 minutes and 10 μL of the samples were then loaded onto a 4-12% NUPAGE® pre-cast gel (Invitrogen, Carlsbad, Calif.) using MES running buffer. […]

[3] = biological target: T3, SlyD+His tag (Escherichia coli, UniProt P0A9K9); assay: Binding mode: FlAsH-EDT2 labeling of in vitro synthesised SlyD versions, SDS-PAGE; conditions: 10 μM in LDS sample buffer; FIG. 15
T3 construct: Lane 1 is full length, hexahistidine tagged SlyD (SlyD+His tag); made in house; host or cells: Cell-free: Expressway in vitro protein synthesis kit (S30 E. coli extract)
T3 sequence (P0A9K9 with tags, fused parts or gaps): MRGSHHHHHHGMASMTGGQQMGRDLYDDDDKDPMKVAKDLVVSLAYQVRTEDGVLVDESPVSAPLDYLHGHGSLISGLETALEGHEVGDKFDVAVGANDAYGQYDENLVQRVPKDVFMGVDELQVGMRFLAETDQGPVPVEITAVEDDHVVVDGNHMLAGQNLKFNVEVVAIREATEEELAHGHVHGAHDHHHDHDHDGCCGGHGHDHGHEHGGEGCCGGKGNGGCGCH
Procedure: (§1) The mode of binding of a biarsenical to a target sequence was examined using the Expressway™ in vitro protein synthesis kit (Invitrogen, Carlsbad, Calif.) and SDS-PAGE. Following the manufacture's protocol 1 μg of SlyD+His tag (SEQ. ID NO: 8), SlyD-C167A/C168A (SEQ. ID NO: 9), and SlyD-trunc171 (SEQ. ID NO: 10) vector DNAs were added to a total volume of 50 μL of S30 E. coli extract and reaction buffer. The reaction was placed at 37° C. with 225 rpm shaking for two hours. After incubation 5 μL of RNase A was added to the reaction, after which an additional 15 minute incubation at 37° C. was performed. Protein from the in vitro protein synthesis reaction was prepared for SDS-PAGE analysis through an acetone precipitation procedure. 5 μl of reaction was added to 20 μL of 100% acetone. After mixing well the acetone solution was centrifuged for 5 minutes at room temperature in a microcentrifuge at 12,000 rpm. The supernatant was removed and the pellet was allowed to dry for 5 minutes. The pellet was resuspended in a 50 μL volume of LDS sample buffer (Invitrogen, Carlsbad, Calif.) containing 10 μM FlAsH-EDT2. The samples were heated to 70° C. for 10 minutes and 10 μL of the samples were then loaded onto a 4-12% NuPAGE® pre-cast gel (Invitrogen, Carlsbad, Calif., Catalog #NP0239 Box) using MES running buffer. The gel was electrophoresed at 200 volts for about 30 minutes. Immediately following electrophoresis the gel was removed from the cassette and visualized on a UV light box.

[4] = biological target: T4, SlyD-C167A/C168A (Escherichia coli, UniProt P0A9K9, C167A/C168A); assay: as above; conditions: 10 μM in LDS sample buffer; FIG. 15
T4 construct: Lane 2 is full length, hexahistidine tagged SlyD with two point mutations; made in house; host or cells: Cell-free: Expressway in vitro protein synthesis kit (S30 E. coli extract)
T4 sequence (P0A9K9 with tags, fused parts or gaps C167A/C168A): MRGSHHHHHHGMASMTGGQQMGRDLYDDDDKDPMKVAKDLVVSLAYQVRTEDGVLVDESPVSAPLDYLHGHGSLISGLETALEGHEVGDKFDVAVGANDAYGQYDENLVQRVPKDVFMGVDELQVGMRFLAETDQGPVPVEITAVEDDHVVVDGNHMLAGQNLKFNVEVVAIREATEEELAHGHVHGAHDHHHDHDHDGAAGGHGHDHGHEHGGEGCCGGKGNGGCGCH
Procedure: as §1

[5] = biological target: T5, SlyD-trunc171 (Escherichia coli, UniProt P0A9K9); assay: as above; conditions: 10 μM in LDS sample buffer; FIG. 15
T5 construct: a hexahistidine tagged version of SlyD truncated after position 171 (SlyD-trunc171); made in house; host or cells: Cell-free: Expressway in vitro protein synthesis kit (S30 E. coli extract)
T5 sequence (P0A9K9 with tags, fused parts or gaps): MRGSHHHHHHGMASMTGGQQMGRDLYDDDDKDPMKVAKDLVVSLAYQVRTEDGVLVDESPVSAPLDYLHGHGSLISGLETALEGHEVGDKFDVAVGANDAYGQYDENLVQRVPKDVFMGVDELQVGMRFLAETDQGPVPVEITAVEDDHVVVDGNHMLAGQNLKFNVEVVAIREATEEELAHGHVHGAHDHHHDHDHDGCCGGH
Procedure: as §1

[6] = biological target: T6, SlyD+His tag (SlyD tetracysteine sequence) (Escherichia coli, UniProt P0A9K9); assay: Specificity: labeling of a mixture of purified proteins, SDS-PAGE, laser gel scanner; assay type: binding; conditions: 10 μM in SDS-PAGE sample buffer; ACP:SlyD approximately 2:1; FIG. 17
T6 construct: made in house; host or cells: E. coli BL21 (DE3), pRSET vector, Ni-NTA purified
T6 sequence (P0A9K9 with tags, fused parts or gaps): as the sequence (P0A9K9 with tags, fused parts or gaps C167A/C168A) above, with A200C, A201C counted along it
Procedure: The native SlyD sequence (SEQ. ID NO: 4) was cloned into the pRSET vector (Invitrogen, Carlsbad, Calif.) using standard molecular biology techniques. Purified protein was produced from this vector by first transforming BL21 (DE3) cells (Invitrogen, Carlsbad, Calif., Catalog #C6010-03) and plated on LB-ampicillin plates. A single colony was selected and grown in one liter of liquid LB broth to a density of 1 O.D. and 1 mM IPTG was added to induce protein expression. After three hours of protein induction the culture was harvested by centrifugation at 10,000×g for 5 minutes at 4° C. The cell pellet was resuspended in 50 mM HEPES (pH 7.5), 140 mM NaCl and sonicated on ice for a total of two minutes. The E. coli lysate was separated by centrifugation at 25,000×g for 20 minutes at 4° C. The supernatant contained the soluble protein and consequently it was loaded onto a Ni^2+-NTA column equilibrated in 50 mM HEPES (pH 7.5), 140 mM NaCl buffer. The column was washed with three column volumes of 50 mM HEPES (pH 7.5), 140 mM NaCl and non-specific binding proteins were removed by washing with 50 mM HEPES (pH 7.5), 140 mM NaCl, and 20 mM Imidazole. To elute the desired hexahistidine tagged SlyD, a solution of 50 mM HEPES (pH 7.5), 140 mM NaCl, and 250 mM Imidazole was added to the column. The protein eluted at greater than 90% purity. […]

[7] = biological target: T7, ACP (Escherichia coli, UniProt P0A6A8); assay: as above; assay type: binding; conditions: 10 μM in SDS-PAGE sample buffer; ACP:SlyD approximately 2:1; FIG. 17
T7 construct: inferred for this product (C); purchased Invitrogen, Madison, Wis; P3080
T7 sequence (P0A6A8 with tags, fused parts or gaps): as the sequence (P0A6A8 with tags, fused parts or gaps) above
Procedure: ACP (Invitrogen, Madison, Wis., Catalog #P3080) was mixed at approximately 2:1 molar ratio with SlyD-His tag. The proteins were put in SDS-PAGE sample buffer supplemented with 10 μM FlAsH-EDT2, Cy3-EDT2, or Cy5-EDT2 and electrophoresed at 150 volts on a 4-20% Tris-glycine pre-cast Novex gel (Invitrogen, Carlsbad, Calif.). Immediately following electrophoresis the gel was imaged on a Fuji Film FLA 5000 laser gel scanner. […] Therefore, the SlyD tetracysteine sequence (SEQ. ID NO: 5) uniquely binds to biarsenical molecules and not to […].

O=C(O)c1ccccc1-c1c2ccc(=O)c([As]3SCCS3)c-2oc2c([As]3SCCS3)c(O)ccc12 [FlAsH-EDT2]
labeling of the CCGGKGNGGCGC sequence (AcpS+4Cys) [1]: equivalent labeling
labeling of the CCPGCC sequence (ACP) [2]: equivalent labeling
labeling of SlyD+His tag [3]: identical labeling
labeling of SlyD-C167A/C168A [4]: identical labeling
labeling of SlyD-trunc171 (only a vicinal pair of cysteines) [5]: only two cysteines are required for biarsenical labeling
binding/labeling of SlyD+His tag [6]: binds to both SlyD+His tag and ACP
binding/labeling of ACP [7]: binds to both SlyD+His tag and ACP
